Where two headings read alike, the source gives them in different places.
Legend:
[1] = biological target: T1, human serum albumin (HSA) (Homo sapiens, UniProt P02768); assay: Longitudinal relaxivity (R1) in PBS containing 4.5% HSA; assay type: physicochemical; details: for Relaxivity in 4.5% HSA: longitudinal relaxivity R1, 20 MHz, 37° C., PBS pH 7.4 with 4.5% HSA, unit from R1 definition, not in table
Text: The magnetic resonance phenomena is complex, and different paramagnetic materials alter the MRI signal to various degrees. See R. B. Lauffer, Chemical Reviews (1987), 87, pp. 901–927. A quantitative measurement of the ability of a contrast agent to relax water protons, and consequently affect the MRI image, is provided by its relaxivity. Relaxivity is the dependence of water proton signal intensity upon the concentration of paramagnetic metal ion in solution. Relaxivity is defined as the induced T1 or T2 relaxation per unit time (R1 or R2 in units of mM^−1 sec^−1) observed for a contrast agent, where the concentration of the agent is expressed in a millimolar (mM).
The degree to which an agent has been tuned for maximum relaxivity can be assessed by measuring the relaxivity-bound (R1-bound) in the presence of HSA. This requires measuring the relaxivity of the free chelate (R1-free) as well as the relaxivity (R1-observed) and percent binding of the agent in 4.5% HSA. The R1-observed is a mole fraction weighted average of R1-free and R1-bound: R1-observed=(fraction-free*R1-free)+(fraction-bound*R1-bound) Thus:
(§1) In Table V, the longitudinal relaxivities (R1) were obtained at 20 MHz and 37° C. by determining the concentration dependent relaxation rate (1/T1) of water protons in phosphate buffered saline (PBS, 150 mM NaCl, 10 mM phosphate, pH=7.4) or in PBS solutions containing 4.5% human serum albumin (HSA). The percent bound to HSA was determined by ultrafiltration of a 0.1 mM chelate, 4.5% HSA solution.

[2] = biological target: T1, human serum albumin (HSA); assay: Percent bound to HSA by ultrafiltration; assay type: binding; details: for Percent Binding in 4.5% HSA: ultrafiltration, 0.1 mM chelate
Protocol: Protein binding of contrast agents can be assessed in vitro by equilibrium dialysis or ultrafiltration using a physiologically relevant protein concentration in buffer. See, G. N. Rolinson and R. Sutherland, British J. Pharmac. Chemother. (1965), 25, p. 638 (ultrafiltration); D. Glick, Methods Biochem. Anal. (1956), 3 p. 265 (equilibrium dialysis). The protein binding measurements set forth in this application are determined by ultrafiltration using 4.5% (w/w) human serum albumin in phosphate buffered saline (0.15 NaCl, 10 mM phosphate, pH 7.4). Preferably at least 10%, and more preferably at least 50%, and even more preferably at least 80%, and most preferably at least 95%, of an activated protein-binding contrast agent will be bound to the protein under physiologically relevant conditions. In this application, the measurement of percent binding of the contrast agent to HSA has an error of approximately +/−5%. Protein binding to other proteins or to serum can be assessed in a similar fashion.
as §1

alkaline phosphatase [3] = assay: T1-weighted MRI scan at 1.0 Tesla of 4.5% HSA solutions with or without alkaline phosphatase; assay type: biochemical
Protocol: Solutions of 4.5% HSA containing compounds 1 and 8 (0.1–0.2 mM) were prepared. After 15 minutes, an initial T1-weighted MRI scan (FISP-3D, TR=60, TE=5, alpha=60) at 1.0 Tesla of the 4.5% HSA solutions was obtained. […] Three units of alkaline phosphatase were added to half of the HSA solutions containing 1 and additional T1-weighted MRI scans were obtained. After 130 minutes, the solutions that contained 1 and alkaline phosphatase obtained 96% of the signal intensity that for the solutions that contain 8 at equivalent concentrations. […] A 20% increase in signal intensity was observed after addition of alkaline phosphatase to solutions containing 1.

alkaline phosphatase [4] = assay: Bioactivation of prodrug by alkaline phosphatase in 4.5% HSA, 1/T1 monitored over time; assay type: biochemical; details: for 1/T1: 4.5% HSA, three units alkaline phosphatase, 20 MHz
Protocol: A solution of prodrug 1 (0.3 mM) was prepared in PBS buffer (pH 7) containing 4.5% HSA. […] Three units of alkaline phosphatase (1 unit converts […] of p-nitrophenylphosphate to p-nitrophenol per minute in phosphate buffered saline at 0.1 mM substrate) were added to the 4.5% HSA solution of compound 1 and the 1/T1 was monitored over time.

HSA [5] = biological target: T2, HSA (Homo sapiens, UniProt P02768); details: cited from earlier work
T2 sequence (P02768 25-609): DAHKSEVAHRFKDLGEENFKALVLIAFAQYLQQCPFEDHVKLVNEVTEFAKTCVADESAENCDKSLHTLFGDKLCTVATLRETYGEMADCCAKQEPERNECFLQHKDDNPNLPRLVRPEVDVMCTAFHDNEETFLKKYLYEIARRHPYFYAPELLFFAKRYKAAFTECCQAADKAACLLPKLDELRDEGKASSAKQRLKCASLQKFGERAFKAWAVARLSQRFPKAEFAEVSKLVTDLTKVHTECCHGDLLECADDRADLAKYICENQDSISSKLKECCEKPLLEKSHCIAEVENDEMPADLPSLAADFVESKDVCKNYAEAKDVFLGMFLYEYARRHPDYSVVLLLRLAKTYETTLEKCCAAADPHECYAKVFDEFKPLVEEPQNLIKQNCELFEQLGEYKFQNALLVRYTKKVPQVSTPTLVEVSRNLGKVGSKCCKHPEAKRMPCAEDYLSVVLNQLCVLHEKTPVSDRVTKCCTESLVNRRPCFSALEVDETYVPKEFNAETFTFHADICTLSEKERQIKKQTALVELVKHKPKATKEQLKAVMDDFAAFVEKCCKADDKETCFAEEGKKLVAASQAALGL

HSA [6] = biological target: T2, HSA; details: cited from earlier work; remark: listed apart in the source
[7] = system: alpha 1-acid glycoprotein (AAG); details: binding to AAG; cited from earlier work
[8] = cited from earlier work
HSA [9] = biological target: T2, HSA; details: cited from earlier work; remark: listed apart in the source

T1 sequence (P02768 25-609): as above

## O=C(O)CN(CCN(CC(=O)O)CC(COc1ccc(-c2ccc(OP(=O)(O)O)cc2)cc1)N(CC(=O)O)CC(=O)O)CC(=O)O (centres unmarked) (Gd complex, metal not drawn) [Compound 1]
[1]
  Relaxivity in 4.5% HSA: 15.9 ± 0.2 mM⁻¹ s⁻¹
[2]
  Percent Binding in 4.5% HSA: 47 ± 1%
Alkaline phosphatase [3]; 4.5% HSA, no alkaline phosphatase, during the MRI scans
  MRI image without alkaline phosphatase: remained as constant dark images
Alkaline phosphatase [3]; after addition of alkaline phosphatase
  increase in signal intensity: 20%
Alkaline phosphatase [3]; with three units alkaline phosphatase, after 130 minutes, equivalent concentrations
  signal intensity relative to solutions containing 8: 96%
Alkaline phosphatase [4]; 0.3 mM in PBS (pH 7) with 4.5% HSA, before addition of alkaline phosphatase
  change in 20 MHz proton relaxation rate 1/T1 with time: No change
Alkaline phosphatase [4]; 0.3 mM prodrug in PBS (pH 7), time 0 min
  1/T1: 4.440 s⁻¹
Alkaline phosphatase [4]; 0.3 mM, time 1 min
  1/T1: 4.348 s⁻¹
Alkaline phosphatase [4]; 0.3 mM, time 2 min
  1/T1: 4.651 s⁻¹
Alkaline phosphatase [4]; 0.3 mM, time 4 min
  1/T1: 4.878 s⁻¹
Alkaline phosphatase [4]; 0.3 mM, time 6 min
  1/T1: 5.025 s⁻¹
Alkaline phosphatase [4]; 0.3 mM, time 14 min
  1/T1: 5.376 s⁻¹
Alkaline phosphatase [4]; 0.3 mM, time 48 min
  1/T1: 6.250 s⁻¹
Alkaline phosphatase [4]; 0.3 mM, time 90 min
  1/T1: 6.849 s⁻¹
Alkaline phosphatase [4]; 0.3 mM, time 110 min
  1/T1: 7.042 s⁻¹
Alkaline phosphatase [4]; 0.3 mM, time 137 min
  1/T1: 7.299 s⁻¹
Alkaline phosphatase [4]; corresponding to the change in 1/T1 upon complete activation
  approximate expected increase in signal intensity: ~24%
Alkaline phosphatase [4]; upon completion of enzymatic activation of 1 to 8
  change in 1/T1 from time zero: 2.86 s⁻¹

## O=C(O)CN(CCN(CC(=O)O)CC(COc1ccc(-c2ccc(O)cc2)cc1)N(CC(=O)O)CC(=O)O)CC(=O)O (centres unmarked) [Compound 8]
[1]; bound to HSA, 0.1 mM
  relaxivity compared with prodrug: higher relaxivity
[1]
  Relaxivity in 4.5% HSA: 26.4 ± 0.4 mM⁻¹ s⁻¹
[2]; concentration of 0.1 mM
  HSA binding affinity compared with prodrug: greater affinity than prodrug 1
[2]
  Percent Binding in 4.5% HSA: 63 ± 2%
Alkaline phosphatase [3]; 0.1–0.2 mM in 4.5% HSA, 1.0 Tesla, equivalent concentrations, no enzyme
  brightness of T1-weighted MRI scan: brighter than the solutions containing 1

## CCn1cc(C(=O)O)c(=O)c2cc(F)c(N3CCNC(C)C3)c(F)c21 (centres unmarked) [NY-198]
HSA [5]
  fraction bound to HSA (fb): 0.28

## C[C@H](CCC(=O)O)[C@H]1CC[C@H]2[C@@H]3[C@H](O)C[C@@H]4C[C@H](O)CC[C@]4(C)[C@H]3CC[C@]12C [chenodeoxycholic acid]
HSA [6]
  binding constant: 5.5×10^4

## CN(C)CCCN1c2ccccc2Sc2ccc(Cl)cc21 [chlorpromazine]
[7]
  Ka: 35.4×10^5

## CCn1cc(C(=O)O)c(=O)c2cc(F)c(N3CCNCC3)nc21 [enoxacin]
HSA [5]
  fraction bound to HSA (fb): 0.35

## CC1(C)C(/C=C/C=C/C=C/C=C2\N(CCCCS(=O)(=O)O)c3ccc4ccccc4c3C2(C)C)=[N+](CCCCS(=O)(=O)[O-])c2ccc3ccccc3c21 [indocyanine green]
[8]; before binding to proteins
  maximal absorbance: 770–780 nm
[8]; upon binding to proteins in plasma or blood
  maximal absorbance: 790–805 nm

## O=C(CCCCC(=O)Nc1c(I)cc(I)c(C(=O)O)c1I)Nc1c(I)cc(I)c(C(=O)O)c1I [iodipamide]
HSA [9]
  binding to HSA: > 98%

## COn1cc(C(=O)O)c(=O)c2cc3c(cc21)OCO3 [miloxacin]
HSA [5]
  fraction bound to HSA (fb): 0.86

## CCn1cc(C(=O)O)c(=O)c2ccc(C)nc21 [nalidixic acid]
HSA [5]
  fraction bound to HSA (fb): 0.71

From patent US7147837B2, “Bioactivated diagnostic imaging constrast agents” (Epix Pharmaceuticals, Inc., priority 1996, dated 2006)
